Drawing on ChEMBL document CHEMBL1139522, “Methyl pyropheophorbide-a analogues: potential fluorescent probes for the peripheral-type benzodiazepine receptor. Effect of central metal in photosensitizing efficacy” (J Med Chem, 2005), this text covers IC50 and LD50 for six compounds.

Structures are written as SMILES. Some results are limits rather than exact numbers.

Assay [1] can be described thus: Displacement of [3H]PK11195 from peripheral benzodiazepine receptor.
The species entered for assay [2] is Mus musculus. Put plainly: In vitro photodynamic therapy efficacy (0.06 uM) in RIF tumor cells using MTT assay; expressed as light dose. It counts as functional.
For assay [3], the species on record is Mus musculus. Put plainly: In vitro photodynamic therapy efficacy (1.0 uM) in RIF tumor cells using MTT assay; expressed as light dose. It counts as functional.

Compound `CCCCCCOC(C)C1=C(C)c2cc3nc(c4c5[nH]c(cc6[nH]c(cc1n2)c(C)c6CC)c(C)c5C(=O)C4)[C@@H](CCC(=O)OC)[C@@H]3C` (stereo partly drawn) came in with an IC50 in assay [1] of 17000 nM. Moreover, the LD50 in assay [2] was 0.43 J/cm2.

On to `O=C(Cc1c[nH]c2ccccc12)NCCCCCCNc1ccc([N+](=O)[O-])c2nonc12`, for which, in assay [1], the IC50 was determined as 320 nM.

Compound `CCC(C)N(C)C(=O)c1cc2ccccc2c(-c2ccccc2Cl)n1` (stereo not drawn) [PK-11195] returned a concentration for half-maximal inhibition (IC50) in assay [1] of 390 nM.

With `C=Cc1c(C)c2cc3nc(c4c5nc(cc6[nH]c(cc1[nH]2)c(C)c6CC)C(C)=C5C(=O)C4)[C@@H](CCC(=O)OC)[C@@H]3C`, the IC50 in assay [1] was 1820 nM. Besides, the LD50 result in assay [3] was “Toxic”; in assay [2], above 2 J/cm2.

The compound `C=Cc1c(C)c2cc3nc(c4c5nc(cc6[nH]c(cc1[nH]2)c(C)c6CC)C(C)=C5C(=O)C4)[C@@H](CCC(=O)NCCCCCCNc1ccc([N+](=O)[O-])c2nonc12)[C@@H]3C` yielded an IC50 in assay [1] of 37200 nM. Also, the LD50 in assay [3] and in assay [2] was above 2 J/cm2 in each case.

As for `C=Cc1c(C)c2[n]3c1=CC1=[N+]4C(=Cc5c(C)c6c7[n]5[Zn-2]34[N+]3=C(C=2)[C@@H](C)[C@H](CCC(=O)OC)C3=C7CC6=O)C(CC)=C1C` (stereo partly drawn), the IC50 in assay [1] was found to be 2890 nM. Besides, the LD50 in assay [3] was 0.7 J/cm2; in assay [2], above 2 J/cm2.
